Source: article PMC5218480 (PLoS ONE, 2017)

Tested on: MV-4-11 cells
Assay: Gene expression microarray analysis (Affymetrix PrimeView) and GSEA
Format: cell-based, human
Design: RFU PODN (11730768_x_at) / Fold change /veh PODN (11730768_x_at) / RFU LINC00158 (11744669_a_at) / Fold change /veh LINC00158 (11744669_a_at) / RFU DUSP10 (11751237_a_at) / Fold change /veh DUSP10 (11751237_a_at) / RFU ID3 (11757404_x_at) / Fold change /veh ID3 (11757404_x_at) / RFU PLEKHG5 (11737974_s_at) / Fold change /veh PLEKHG5 (11737974_s_at) / RFU LRRC4B (11730491_at) / Fold change /veh LRRC4B (11730491_at) / RFU GIMAP4 (11747438_a_at) / Fold change /veh GIMAP4 (11747438_a_at) / RFU KRT8 (11758183_x_at) / Fold change /veh KRT8 (11758183_x_at) / RFU CNN1 (11734310_a_at) / Fold change /veh CNN1 (11734310_a_at) / RFU VPS37D (11726825_at) / Fold change /veh VPS37D (11726825_at) / RFU C10orf10 (11716522_x_at) / Fold change /veh C10orf10 (11716522_x_at) / RFU KIR2DL2 /// KIR2DL4 /// KIR2DL5A /// KIR2DL5B /// KIR2DS1 /// KIR2DS2 /// KIR2DS3 /// KIR2DS4 /// KIR3DL3 /// KIR3DL3 /// KIR3DS1 (11738374_at) / Fold change /veh KIR2DL2 /// KIR2DL4 /// KIR2DL5A /// KIR2DL5B /// KIR2DS1 /// KIR2DS2 /// KIR2DS3 /// KIR2DS4 /// KIR3DL3 /// KIR3DL3 /// KIR3DS1 (11738374_at) / RFU C1QL1 (11718748_at) / Fold change /veh C1QL1 (11718748_at) / RFU TMPRSS4 (11747572_a_at) / Fold change /veh TMPRSS4 (11747572_a_at) / RFU HAMP (11756126_x_at) / Fold change /veh HAMP (11756126_x_at) / RFU RNFT2 (11725882_a_at) / Fold change /veh RNFT2 (11725882_a_at) / RFU NR4A2 (11747474_a_at) / Fold change /veh NR4A2 (11747474_a_at) / RFU ABCC12 (11746883_a_at) / Fold change /veh ABCC12 (11746883_a_at) / RFU TMEM136 (11760407_x_at) / Fold change /veh TMEM136 (11760407_x_at) / RFU CLDN22 /// WWC2 (11732394_at) / Fold change /veh CLDN22 /// WWC2 (11732394_at) / RFU HLA-DPB1 (11760878_x_at) / Fold change /veh HLA-DPB1 (11760878_x_at) / RFU SPINT1 (11716480_a_at) / Fold change /veh SPINT1 (11716480_a_at) / RFU GAP43 (11754022_s_at) / Fold change /veh GAP43 (11754022_s_at) / RFU A4GNT (11735810_at) / Fold change /veh A4GNT (11735810_at) / RFU PRB3 (11715151_x_at) / Fold change /veh PRB3 (11715151_x_at) / RFU TUBB4B (11761932_at) / Fold change /veh TUBB4B (11761932_at) / RFU CAPN14 (11732068_a_at) / Fold change /veh CAPN14 (11732068_a_at) / RFU TMCC2 (11721928_a_at) / Fold change /veh TMCC2 (11721928_a_at) / RFU IRGQ (11745062_a_at) / Fold change /veh IRGQ (11745062_a_at) / RFU FAM174B (11720279_a_at) / Fold change /veh FAM174B (11720279_a_at) / RFU TMPRSS4 (11748680_a_at) / Fold change /veh TMPRSS4 (11748680_a_at) / RFU FAM212B (11763350_a_at) / Fold change /veh FAM212B (11763350_a_at) / RFU PLEKHG5 (11743358_a_at) / Fold change /veh PLEKHG5 (11743358_a_at) / RFU ZSCAN30 (11745921_a_at) / Fold change /veh ZSCAN30 (11745921_a_at) / RFU CMKLR1 (11741424_a_at) / Fold change /veh CMKLR1 (11741424_a_at) / RFU LOC101060620 /// MAPK8IP1 (11723275_at) / Fold change /veh LOC101060620 /// MAPK8IP1 (11723275_at) / RFU SPTSSB (11747773_x_at) / Fold change /veh SPTSSB (11747773_x_at) / RFU PRSS12 (11739890_at) / Fold change /veh PRSS12 (11739890_at) / RFU BIN1 (11741810_x_at) / Fold change /veh BIN1 (11741810_x_at) / RFU WNT11 (11732464_a_at) / Fold change /veh WNT11 (11732464_a_at) / RFU C10orf10 (11716521_a_at) / Fold change /veh C10orf10 (11716521_a_at) / RFU C5orf56 (11738089_at) / Fold change /veh C5orf56 (11738089_at) / RFU CYB561 (11721691_x_at) / Fold change /veh CYB561 (11721691_x_at) / RFU ANKRD19P (11752326_a_at) / Fold change /veh ANKRD19P (11752326_a_at) / RFU OR2T12 /// OR2T33 /// OR2T8 (11738714_s_at) / Fold change /veh OR2T12 /// OR2T33 /// OR2T8 (11738714_s_at) / RFU VCAN (11748164_a_at) / Fold change /veh VCAN (11748164_a_at) / RFU JSRP1 (11732532_at) / Fold change /veh JSRP1 (11732532_at) / RFU KRTAP10-11 (11738290_x_at) / Fold change /veh KRTAP10-11 (11738290_x_at) / RFU MYO3A (11730013_a_at) / Fold change /veh MYO3A (11730013_a_at) / RFU EBF3 (11725865_a_at) / Fold change /veh EBF3 (11725865_a_at) / RFU CAMK2N1 (11719241_x_at) / Fold change /veh CAMK2N1 (11719241_x_at) / RFU C5orf56 (11738088_a_at) / Fold change /veh C5orf56 (11738088_a_at) / RFU OLFML3 (11715873_a_at) / Fold change /veh OLFML3 (11715873_a_at) / RFU LOC100653217 /// NTM (11731650_a_at) / Fold change /veh LOC100653217 /// NTM (11731650_a_at) / RFU MAPK11 (11762145_a_at) / Fold change /veh MAPK11 (11762145_a_at) / RFU FIZ1 (11724087_x_at) / Fold change /veh FIZ1 (11724087_x_at) / RFU OASL (11726364_x_at) / Fold change /veh OASL (11726364_x_at) / RFU SOX15 (11748057_x_at) / Fold change /veh SOX15 (11748057_x_at) / RFU CD79A (11719716_a_at) / Fold change /veh CD79A (11719716_a_at) / RFU HIST1H1D (11736915_at) / Fold change /veh HIST1H1D (11736915_at) / RFU CASKIN2 (11723855_a_at) / Fold change /veh CASKIN2 (11723855_a_at) / RFU LOC730098 (11760151_x_at) / Fold change /veh LOC730098 (11760151_x_at) / RFU OR4N2 (11742367_at) / Fold change /veh OR4N2 (11742367_at) / RFU PRRT2 (11749266_a_at) / Fold change /veh PRRT2 (11749266_a_at) / RFU SNX32 (11753110_a_at) / Fold change /veh SNX32 (11753110_a_at) / RFU CDHR5 (11726645_a_at) / Fold change /veh CDHR5 (11726645_a_at) / RFU RCAN1 (11760418_a_at) / Fold change /veh RCAN1 (11760418_a_at) / RFU FAM167A (11723789_a_at) / Fold change /veh FAM167A (11723789_a_at) / RFU FAM26E (11764081_at) / Fold change /veh FAM26E (11764081_at) / RFU ISYNA1 (11749810_s_at) / Fold change /veh ISYNA1 (11749810_s_at) / RFU ACY1 (11761880_at) / Fold change /veh ACY1 (11761880_at) / RFU 11764098_at / Fold change /veh 11764098_at / RFU SAMD14 (11745864_x_at) / Fold change /veh SAMD14 (11745864_x_at) / RFU NPB (11741838_a_at) / Fold change /veh NPB (11741838_a_at) / RFU TMPRSS6 (11731388_a_at) / Fold change /veh TMPRSS6 (11731388_a_at) / RFU KRTAP10-2 (11738614_at) / Fold change /veh KRTAP10-2 (11738614_at) / RFU ARHGAP8 /// PRR5-ARHGAP8 (11727945_x_at) / Fold change /veh ARHGAP8 /// PRR5-ARHGAP8 (11727945_x_at) / RFU KRTAP5-7 /// NADSYN1 (11734609_at) / Fold change /veh KRTAP5-7 /// NADSYN1 (11734609_at) / RFU RASL12 (11751679_a_at) / Fold change /veh RASL12 (11751679_a_at) / RFU CDKN2B (11736163_a_at) / Fold change /veh CDKN2B (11736163_a_at) / RFU PRF1 (11729649_at) / Fold change /veh PRF1 (11729649_at) / RFU, ZNF638 /// ZNF638-IT1 / Fold change vs veh, ZNF638 /// ZNF638-IT1 / RFU, PANK3 / Fold change vs veh, PANK3 / RFU, SH3YL1 / Fold change vs veh, SH3YL1 / RFU, ZEB2 / Fold change vs veh, ZEB2 / RFU, NRIP1 / Fold change vs veh, NRIP1 / RFU, PTTG1IP / Fold change vs veh, PTTG1IP / RFU, CAPN2 / Fold change vs veh, CAPN2 / RFU, MED14 / Fold change vs veh, MED14 / RFU, SNORA58 / Fold change vs veh, SNORA58 / RFU, C1orf63 / Fold change vs veh, C1orf63 / RFU, LRRFIP1 / Fold change vs veh, LRRFIP1 / RFU, NDUFAF7 / Fold change vs veh, NDUFAF7 / RFU, SLC12A2 / Fold change vs veh, SLC12A2 / RFU, IBTK / Fold change vs veh, IBTK / RFU, ESF1 / Fold change vs veh, ESF1 / Fold change vs veh, TMEM50B / RFU, TAOK1 / Fold change vs veh, TAOK1 / RFU, ACBD3 / Fold change vs veh, ACBD3 / RFU, TMA16 / Fold change vs veh, TMA16 / RFU, RWDD3 / Fold change vs veh, RWDD3 / RFU, BCAT1 / Fold change vs veh, BCAT1 / RFU, EDEM3 / Fold change vs veh, EDEM3 / RFU, TMEM33 / Fold change vs veh, TMEM33 / RFU, WDR75 / Fold change vs veh, WDR75 / RFU, AHCTF1 / Fold change vs veh, AHCTF1 / RFU, TFRC / Fold change vs veh, TFRC / RFU, ZDHHC17 / Fold change vs veh, ZDHHC17 / RFU, NOM1 / Fold change vs veh, NOM1 / RFU, ARL8B / Fold change vs veh, ARL8B / RFU, ZBTB11 / Fold change vs veh, ZBTB11 / RFU, TAMM41 / Fold change vs veh, TAMM41 / RFU, KIAA1704 /// LOC100996395 / Fold change vs veh, KIAA1704 /// LOC100996395 / RFU, ING1 / Fold change vs veh, ING1 / RFU, TRMT61B / Fold change vs veh, TRMT61B / RFU, FUBP3 / Fold change vs veh, FUBP3 / RFU, TP53 / Fold change vs veh, TP53 / RFU, TNKS2 / Fold change vs veh, TNKS2 / RFU, ZFP14 / Fold change vs veh, ZFP14 / RFU, ACTR2 / Fold change vs veh, ACTR2 / RFU, PPP3R1 / Fold change vs veh, PPP3R1 / RFU, PIK3R1 / Fold change vs veh, PIK3R1 / RFU, HNRNPA1 / Fold change vs veh, HNRNPA1 / RFU, RNF170 / Fold change vs veh, RNF170 / RFU, ZNF28 / Fold change vs veh, ZNF28 / RFU, RNGTT / Fold change vs veh, RNGTT / RFU, OGT / Fold change vs veh, OGT / RFU, BRD1 / Fold change vs veh, BRD1 / RFU, MARS / Fold change vs veh, MARS / RFU, ZNF655 / Fold change vs veh, ZNF655 / RFU, FAHD1 / Fold change vs veh, FAHD1 / RFU, BDP1 / Fold change vs veh, BDP1 / RFU, LRRCC1 / Fold change vs veh, LRRCC1 / RFU, ARID1A / Fold change vs veh, ARID1A / RFU, ZNF146 / Fold change vs veh, ZNF146 / RFU, ZNF330 / Fold change vs veh, ZNF330 / RFU, GPN3 / Fold change vs veh, GPN3 / RFU, C9orf123 / Fold change vs veh, C9orf123 / RFU, N4BP2L2 / Fold change vs veh, N4BP2L2 / RFU, ARFIP1 / Fold change vs veh, ARFIP1 / RFU, FAM179B / Fold change vs veh, FAM179B / RFU, BCL10 / Fold change vs veh, BCL10 / RFU, UHRF1BP1L / Fold change vs veh, UHRF1BP1L / RFU, BET1 / Fold change vs veh, BET1 / RFU, CNOT2 / Fold change vs veh, CNOT2 / RFU, ZNF268 / Fold change vs veh, ZNF268 / Fold change vs veh, ZNF507 / RFU, DGCR2 / Fold change vs veh, DGCR2 / RFU, WDSUB1 / Fold change vs veh, WDSUB1 / Fold change vs veh, HSP90B1 /// MIR3652 / RFU, ADSS / Fold change vs veh, ADSS / RFU, GK / Fold change vs veh, GK / RFU, ZNF148 / Fold change vs veh, ZNF148 / RFU, TAF9 / Fold change vs veh, TAF9 / RFU, SLC1A5 / Fold change vs veh, SLC1A5 / RFU, SLMO2 / Fold change vs veh, SLMO2 / RFU, ABCC4 / Fold change vs veh, ABCC4 / RFU, LOC101060439 /// RAP1B / Fold change vs veh, LOC101060439 /// RAP1B / RFU, RFX7 / Fold change vs veh, RFX7 / RFU, GTPBP10 / Fold change vs veh, GTPBP10 / RFU, CNEP1R1 / Fold change vs veh, CNEP1R1 / RFU, BIVM-ERCC5 /// ERCC5 / Fold change vs veh, BIVM-ERCC5 /// ERCC5 / RFU, ILF3 / Fold change vs veh, ILF3 / RFU 11762660_at / Fold change /veh 11762660_at / RFU VCAN (11757783_s_at) / Fold change /veh VCAN (11757783_s_at) / RFU DDX43 (11728927_at) / Fold change /veh DDX43 (11728927_at) / RFU KRT8 (11758188_x_at) / Fold change /veh KRT8 (11758188_x_at) / RFU NKD1 (11759106_at) / Fold change /veh NKD1 (11759106_at) / RFU SRD5A1 (11742802_a_at) / Fold change /veh SRD5A1 (11742802_a_at) / RFU TPSAB1 /// TPSB2 (11721975_s_at) / Fold change /veh TPSAB1 /// TPSB2 (11721975_s_at) / RFU GSTM3 (11746129_a_at) / Fold change /veh GSTM3 (11746129_a_at) / RFU IL23R (11737362_x_at) / Fold change /veh IL23R (11737362_x_at) / RFU TMEM51 (11727254_a_at) / Fold change /veh TMEM51 (11727254_a_at) / RFU PIWIL2 (11732686_x_at) / Fold change /veh PIWIL2 (11732686_x_at) / RFU ORM1 (11744905_x_at) / Fold change /veh ORM1 (11744905_x_at) / RFU CCDC152 (11743942_at) / Fold change /veh CCDC152 (11743942_at) / RFU ECM1 (11717891_a_at) / Fold change /veh ECM1 (11717891_a_at) / RFU IL23R (11748794_a_at) / Fold change /veh IL23R (11748794_a_at) / RFU TNFAIP8L3 (11732012_x_at) / Fold change /veh TNFAIP8L3 (11732012_x_at) / RFU MBOAT4 (11741988_at) / Fold change /veh MBOAT4 (11741988_at) / RFU 11764193_at / Fold change /veh 11764193_at / RFU TMEM53 (11763286_at) / Fold change /veh TMEM53 (11763286_at) / RFU MAGEB2 (11727129_at) / Fold change /veh MAGEB2 (11727129_at) / RFU TMEM200A (11744735_a_at) / Fold change /veh TMEM200A (11744735_a_at) / RFU CCDC152 (11751479_a_at) / Fold change /veh CCDC152 (11751479_a_at) / RFU FAM211A (11726209_a_at) / Fold change /veh FAM211A (11726209_a_at) / RFU RGS16 (11746705_a_at) / Fold change /veh RGS16 (11746705_a_at) / RFU VCAN (11755009_s_at) / Fold change /veh VCAN (11755009_s_at) / RFU RHOB (11743442_s_at) / Fold change /veh RHOB (11743442_s_at) / RFU RGS16 (11720943_a_at) / Fold change /veh RGS16 (11720943_a_at) / RFU RGS16 (11720944_at) / Fold change /veh RGS16 (11720944_at) / RFU, VPS4B / Fold change vs veh, VPS4B / RFU, CREB1 / Fold change vs veh, CREB1 / RFU, DNAJC13 / Fold change vs veh, DNAJC13 / RFU, GNAQ / Fold change vs veh, GNAQ / RFU, CDK5R1 / Fold change vs veh, CDK5R1 / RFU, ZRANB3 / Fold change vs veh, ZRANB3 / RFU, CUL4A / Fold change vs veh, CUL4A / RFU, CCNY / Fold change vs veh, CCNY / RFU, UFL1 / Fold change vs veh, UFL1 / RFU, COG3 / Fold change vs veh, COG3 / RFU, DIAPH2 / Fold change vs veh, DIAPH2 / RFU, SKA2 / Fold change vs veh, SKA2 / RFU, AFF3 / Fold change vs veh, AFF3 / RFU, LMF1 / Fold change vs veh, LMF1 / RFU, IPO11 / Fold change vs veh, IPO11 / RFU, DFFB / Fold change vs veh, DFFB / RFU, FOXP1 / Fold change vs veh, FOXP1 / RFU, CARD8 / Fold change vs veh, CARD8 / RFU, STRN3 / Fold change vs veh, STRN3 / RFU, ADK / Fold change vs veh, ADK / RFU, RASSF2 / Fold change vs veh, RASSF2 / RFU, WIPF1 / Fold change vs veh, WIPF1 / RFU, LARP1B / Fold change vs veh, LARP1B / RFU, RASA1 / Fold change vs veh, RASA1 / RFU, RB1 / Fold change vs veh, RB1 / RFU, PPFIA1 / Fold change vs veh, PPFIA1 / RFU, MAT2A / Fold change vs veh, MAT2A / RFU, CCT5 / Fold change vs veh, CCT5 / RFU, WDR92 / Fold change vs veh, WDR92 / RFU, CUX1 / Fold change vs veh, CUX1 / RFU, TTC7A / Fold change vs veh, TTC7A / RFU, TMEM135 / Fold change vs veh, TMEM135 / RFU, DEPTOR / Fold change vs veh, DEPTOR / RFU, CPM / Fold change vs veh, CPM / RFU, DNAJB6 / Fold change vs veh, DNAJB6 / RFU, CACNA2D3 / Fold change vs veh, CACNA2D3 / RFU, DTX4 / Fold change vs veh, DTX4 / RFU, TFCP2 / Fold change vs veh, TFCP2 / RFU, GMCL1 /// GMCL1P1 / Fold change vs veh, GMCL1 /// GMCL1P1 / RFU, AEBP2 / Fold change vs veh, AEBP2 / RFU, SNHG1 /// SNORD22 /// SNORD25 /// SNORD26 /// SNORD27 /// SNORD28 /// SNORD29 /// SNORD31 / Fold change vs veh, SNHG1 /// SNORD22 /// SNORD25 /// SNORD26 /// SNORD27 /// SNORD28 /// SNORD29 /// SNORD31 / Fold change (Aza/veh), C12orf56 (ProbeSet 11735607_a_at) / Fold change (ACY-1035/veh), C12orf56 (ProbeSet 11735607_a_at) / Fold change (Aza/veh), FGFR1OP (ProbeSet 11751329_s_at) / Fold change (ACY-1035/veh), FGFR1OP (ProbeSet 11751329_s_at) / Fold change (Aza/veh), VPS36 (ProbeSet 11739960_a_at) / Fold change (ACY-1035/veh), VPS36 (ProbeSet 11739960_a_at) / RFU SYPL1 (11715823_x_at) / Fold change /veh SYPL1 (11715823_x_at) / RFU IGFBP7 (11715501_s_at) / Fold change /veh IGFBP7 (11715501_s_at) / RFU REEP3 (11722064_at) / Fold change /veh REEP3 (11722064_at) / RFU IGLL1 (11728026_x_at) / Fold change /veh IGLL1 (11728026_x_at): dose or concentration left out as unconfirmed
Settings: MV-4-11 cells, 48 hours

For Nc1ccc(-c2cccs2)cc1NC(=O)c1ccc2c(c1)cc(C1CC1)n2CCN1CCOCC1 [ACY-1035], the “RFU KIR2DL2 /// KIR2DL4 /// KIR2DL5A /// KIR2DL5B /// KIR2DS1 /// KIR2DS2 /// KIR2DS3 /// KIR2DS4 /// KIR3DL3 /// KIR3DL3 /// KIR3DS1 (11738374_at)” value was 11.07 RFU.
